Experimental data reported in patent US12390437B2, “Itaconic acid derivatives and uses thereof intreating an inflammatory disease or a disease associated with an undesirable immune response” (Sitryx Therapeutics Limited, priority 2019, dated 2025).
pIC50: −log10 of the molar value.

These molecules were tested on IL-6 cytokine output from THP-1s (assay: THP-1 AlphaLISA IL-6 cytokine assay). Details: Homo sapiens; PMA-differentiated THP-1 cells, LPS 24 hr then Nigericin 1 hour.
Format: cell-based, human
Description: Measuring Inhibitory Effects on IL-1β and IL-6 Cytokine Output from THP-1s
The cytokine inhibition profiles of compounds of formula (IW-1) were determined in a differentiated THP-1 cell assay. All assays were performed in RPMI-1640 growth medium (Gibco), supplemented with 10% fetal bovine serum (FBS; Gibco), 1% penicillin-streptomycin and 1% sodium pyruvate unless specified otherwise. The IL-1β and IL-6 cytokine inhibition assays were each run in a background of differentiated THP-1 cells as described below. All reagents described were from Sigma-Aldrich unless specified otherwise. Compounds were prepared as 10 mM DMSO stocks.
THP-1 cells were expanded as a suspension up to 80% confluence in appropriate growth medium. Cells were harvested, suspended, and treated with an appropriate concentration of phorbol 12-myristate 13-acetate (PMA) over a 72 hr period (37° C./5% CO2).
Following 72 hrs of THP-1 cell incubation, cellular medium was removed and replaced with fresh growth media containing 1% of FBS. Working concentrations of compounds were prepared separately in 10% FBS treated growth medium and pre-incubated with the cells for 30 minutes (37° C./5% CO2). Following the 30 minute compound pre-incubation, THP-1s were treated with an appropriate concentration of LPS and the THP-1s were subsequently incubated for a 24 hr period (37° C./5% CO2). An appropriate final concentration of Nigericin was then dispensed into the THP-1 plates and incubated for 1 hour (37° C./5% CO2) before THP-1 supernatants were harvested and collected in separate polypropylene 96-well holding plates.
Reagents from each of the IL-1β and IL-6 commercial kits (Perkin Elmer) were prepared and run according to the manufacturer's instructions. Subsequently, fluorescence signal detection in a microplate reader was measured (EnVision® Multilabel Reader, Perkin Elmer).
Percentage inhibition was calculated per cytokine by normalising the sample data to the high and low controls used within each plate (+/−LPS respectively). Percentage inhibition was then plotted against compound concentration and the 50% inhibitory concentration (IC50) was determined from the resultant concentration-response curve.

Row | pIC50 | Compound
1 | 4.87 | C=C(CC(=O)OCCCCCCCC)C(=O)OC(C)C(=O)O (stereo not drawn) [Example 79, 2-((2-methylene-4-(octyloxy)-4-oxobutanoyl)oxy)propanoic acid]
2 | 4.01 | C=C(CC(=O)OCC(C)(C)C)C(=O)OCCC(=O)O [Example 83, 3-((2-methylene-4-(neopentyloxy)-4-oxobutanoyl)oxy)propanoic acid]
3 | 4.52 | C=C(CC(=O)OCCS(=O)(=O)c1ccc(C)cc1)C(=O)OCC(=O)O [Example 97, 2-((2-methylene-4-oxo-4-(2-tosylethoxy)butanoyl)oxy)acetic acid]
4 | 5.57 | C=C(CC(=O)OCCCCCCCC)C(=O)OCC(=O)N1CCN(C)CC1 [Example 107, 1-(2-(4-methylpiperazin-1-yl)-2-oxoethyl) 4-octyl 2-methylenesuccinate]
5 | 5.51 | C=C(CC(=O)OCCCCCCCC)C(=O)OCCC(=O)N1CCOCC1 [Example 108, 1-(3-morpholino-3-oxopropyl) 4-octyl 2-methylenesuccinate]
6 | 5.17 | C=C(CC(=O)OCCCCCCCC)C(=O)OCCC(=O)N(CC)CC [Example 109, 1-(3-(diethylamino)-3-oxopropyl) 4-octyl 2-methylenesuccinate]
7 | 5.36 | C=C(CC(=O)OCCCCCCCC)C(=O)OCCC(=O)NC [Example 110, 1-(3-(methylamino)-3-oxopropyl) 4-octyl 2-methylenesuccinate]
8 | 4.15 | C=C(CC(=O)OC1CCCCC1)C(=O)OC(C)C(=O)O (stereo not drawn) [Example 111, 2-((4-(cyclohexyloxy)-2-methylene-4-oxobutanoyl)oxy)propanoic acid]
9 | 4.31 | C=C(CC(=O)OCC1CCC(F)(F)CC1)C(=O)OCC(=O)O [Example 113, 2-((4-((4,4-difluorocyclohexyl)methoxy)-2-methylene-4-oxobutanoyl)oxy)acetic Acid]
10 | 4.25 | C=C(CC(=O)OCCCOCC)C(=O)OCC(=O)O [Example 114, 2-((4-(3-ethoxypropoxy)-2-methylene-4-oxobutanoyl)oxy)acetic acid]
11 | 4.44 | C=C(CC(=O)OC1CC2CCC1C2)C(=O)OCC(=O)O (stereo not drawn) [Example 115, 2-((4-(bicyclo[2.2.1]heptan-2-yloxy)-2-methylene-4-oxobutanoyl)oxy)acetic acid]
12 | 4.36 | C=C(CC(=O)OC1CCCCC1)C(=O)OCC(C)(C)C(=O)O [Example 117, 3-((4-(cyclohexyloxy)-2-methylene-4-oxobutanoyl)oxy)-2,2-dimethylpropanoic acid]
13 | 4.32 | C=C(CC(=O)OCCCCCC)C(=O)OCC(=O)NS(C)(=O)=O [Example 119, 4-hexyl 1-(2-(methylsulfonamido)-2-oxoethyl) 2-methylenesuccinate]
14 | 5.11 | C=C(CC(=O)OCCCCCC)C(=O)OCCC(=O)NS(C)(=O)=O [Example 120]
15 | 5.28 | C=C(C(=O)OCCS(C)(=O)=O)C(C)C(=O)OCCCCCCCC (stereo not drawn) [Example 138, 4-(2-(methylsulfonyl)ethyl) 1-octyl 2-methyl-3-methylenesuccinate]
16 | 4.82 | C=C(C(=O)O[C@H]1CCOC1)C(C)C(=O)OCCCCCCCC (stereo partly drawn) [Example 139, 1-octyl 4-((S)-tetrahydrofuran-3-yl) 2-methyl-3-methylenesuccinate]
17 | 5.06 | C=C(CC(=O)OCCCCCCCC)C(=O)OC1CC(F)(F)C1 [Example 185, 1-(3,3-difluorocyclobutyl) 4-octyl 2-methylenesuccinate]

Row | Compound | pIC50
18 | C=C(CC(=O)OC1CCC1)C(=O)OCC(=O)O [Example 116, 2-((4-cyclobutoxy-2-methylene-4-oxobutanoyl)oxy)acetic acid] | 4.22

Each molecule was assayed on IL-1β cytokine output from THP-1s (assay: THP-1 AlphaLISA IL-1β cytokine assay). Details: Homo sapiens, THP-1, PMA-differentiated THP-1 cells, LPS 24 hr then Nigericin 1 hour; read-out: IL-1β (IC50).
Format: cell-based, human
Outline: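 Cells are differentiated with PMA over 72 h, switched to 1% FBS medium and treated with compound for 30 min before LPS stimulation for 24 h. Nigericin is added for a final hour, and secreted cytokine is measured by AlphaLISA, with IC50 fitted from percent inhibition.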

Row | pIC50 | Compound
19 | 4.92 | C=C(CC(=O)OCCCCCCCC)C(=O)OC(C)C(=O)O (stereo not drawn) [Example 79, 2-((2-methylene-4-(octyloxy)-4-oxobutanoyl)oxy)propanoic acid]
20 | 4.47 | C=C(CC(=O)OCC(C)(C)C)C(=O)OCCC(=O)O [Example 83, 3-((2-methylene-4-(neopentyloxy)-4-oxobutanoyl)oxy)propanoic acid]
21 | 4.53 | C=C(CC(=O)OCCS(=O)(=O)c1ccc(C)cc1)C(=O)OCC(=O)O [Example 97, 2-((2-methylene-4-oxo-4-(2-tosylethoxy)butanoyl)oxy)acetic acid]
22 | 5.00 | C=C(CC(=O)OCCCCCCCC)C(=O)OCC(=O)N1CCN(C)CC1 [Example 107, 1-(2-(4-methylpiperazin-1-yl)-2-oxoethyl) 4-octyl 2-methylenesuccinate]
23 | 4.95 | C=C(CC(=O)OCCCCCCCC)C(=O)OCCC(=O)N1CCOCC1 [Example 108, 1-(3-morpholino-3-oxopropyl) 4-octyl 2-methylenesuccinate]
24 | 4.97 | C=C(CC(=O)OCCCCCCCC)C(=O)OCCC(=O)N(CC)CC [Example 109, 1-(3-(diethylamino)-3-oxopropyl) 4-octyl 2-methylenesuccinate]
25 | 5.07 | C=C(CC(=O)OCCCCCCCC)C(=O)OCCC(=O)NC [Example 110, 1-(3-(methylamino)-3-oxopropyl) 4-octyl 2-methylenesuccinate]
26 | 4.00 | C=C(CC(=O)OC1CCCCC1)C(=O)OC(C)C(=O)O (stereo not drawn) [Example 111, 2-((4-(cyclohexyloxy)-2-methylene-4-oxobutanoyl)oxy)propanoic acid]
27 | 4.00 | C=C(CC(=O)OCC1CCC(F)(F)CC1)C(=O)OCC(=O)O [Example 113, 2-((4-((4,4-difluorocyclohexyl)methoxy)-2-methylene-4-oxobutanoyl)oxy)acetic Acid]
28 | 4.00 | C=C(CC(=O)OCCCOCC)C(=O)OCC(=O)O [Example 114, 2-((4-(3-ethoxypropoxy)-2-methylene-4-oxobutanoyl)oxy)acetic acid]
29 | 4.23 | C=C(CC(=O)OC1CC2CCC1C2)C(=O)OCC(=O)O (stereo not drawn) [Example 115, 2-((4-(bicyclo[2.2.1]heptan-2-yloxy)-2-methylene-4-oxobutanoyl)oxy)acetic acid]
30 | 4.00 | C=C(CC(=O)OC1CCCCC1)C(=O)OCC(C)(C)C(=O)O [Example 117, 3-((4-(cyclohexyloxy)-2-methylene-4-oxobutanoyl)oxy)-2,2-dimethylpropanoic acid]
31 | 4.08 | C=C(CC(=O)OCCCCCC)C(=O)OCC(=O)NS(C)(=O)=O [Example 119, 4-hexyl 1-(2-(methylsulfonamido)-2-oxoethyl) 2-methylenesuccinate]
32 | 4.57 | C=C(CC(=O)OCCCCCC)C(=O)OCCC(=O)NS(C)(=O)=O [Example 120]
33 | 5.17 | C=C(C(=O)OCCS(C)(=O)=O)C(C)C(=O)OCCCCCCCC (stereo not drawn) [Example 138, 4-(2-(methylsulfonyl)ethyl) 1-octyl 2-methyl-3-methylenesuccinate]
34 | 4.66 | C=C(C(=O)O[C@H]1CCOC1)C(C)C(=O)OCCCCCCCC (stereo partly drawn) [Example 139, 1-octyl 4-((S)-tetrahydrofuran-3-yl) 2-methyl-3-methylenesuccinate]
35 | 4.67 | C=C(CC(=O)OCCCCCCCC)C(=O)OC1CC(F)(F)C1 [Example 185, 1-(3,3-difluorocyclobutyl) 4-octyl 2-methylenesuccinate]

Row | Compound | pIC50
36 | C=C(CC(=O)OC1CCC1)C(=O)OCC(=O)O [Example 116, 2-((4-cyclobutoxy-2-methylene-4-oxobutanoyl)oxy)acetic acid] | 4.00
